The values below come from patent publication US8440423B2, “Bioremediation of nanomaterials” (U.S. Department of Energy, priority 2007, dated 2013).

In one series the test system is Escherichia coli W3110. Description: Growth of E. coli W3110 in minimal [3-13C]L-lactate medium with nanoparticles added (OD600). Type of series: cell-based. As for the experimental part: (§1) Tracer Experiments. Shewanella oneidensis MR-1 and Escherichia coli W3110 were cultured in minimal medium (described in Tang, Y. J. J.; Laidlaw, D.; Gani, K.; Keasling, J. D. Biotechnology and Bioengineering 2006, 95, (1), 176-184) and hereby incorporated by reference). The medium was supplied with 30 mM (98% [3-^13C]L-lactate) (Cambridge Isotope, USA) as the sole carbon source to support cell growth. The inoculum was prepared in LB medium, which was grown overnight. This culture was inoculated into the minimal medium with a 0.09% inoculation volume. Both S. oneidensis and E. coli were cultured in shake flasks at 30° C. (at 200 rpm in dark). The fullerene compounds (C60, C60—OH, C60—COOH and C60-NH2) were added to the medium to different final concentrations (from 1 mg/L to 80 mg/L) before the exponential phase (OD600=0.09˜0.10). The culture's optical density at a wavelength of 600 nm (OD600) was measured in a spectrophotometer (DU®640, Beckman Instruments, Palo Alto, Calif.) every 2-3 hours. The carbon source (lactate) concentrations at each time point were determined using an enzyme test kit (r-Biopharm Inc., Darmstadt, Germany).
We used minimal medium containing [3-^13C]L-lactate to grow both organisms and test the impact of fullerenes (concentrations range from 0˜80 mg/l) on their growth. […]

Series [1] concerns Shewanella oneidensis MR-1. The experiment in a line: Growth of S. oneidensis MR-1 in minimal [3-13C]L-lactate medium with nanoparticles added (OD600). Type of series: cell-based. On the procedure:
as §1
We used minimal medium containing [3-^13C]L-lactate to grow both organisms and test the impact of fullerenes (concentrations range from 0˜80 mg/l) on their growth. Since C60 is not soluble in water and cannot be uniformly suspended in the culture solution, we only applied concentrations less than 20 mg/L in the studies of non-derivatized C60.

A further series is described as follows: Solubility in water. The format is physicochemical.
The next series has as its system mouse skin. The following applies: repeating subchronic topical dose on mouse skin for up to 24 weeks; cited from earlier work.
Series [2] relates to 22 collection strains including E coli, B. subtilis, etc. The following applies: ~43 mg/L; cited from earlier work.
The next series has as its system E. coli, and B. subtilis. Conditions: up to 5 mg/L; cited from earlier work.

The structures appear in SMILES notation.

Consider `c12c3c4c5c1c1c6c7c2c2c8c3c3c9c4c4c%10c5c5c1c1c6c6c%11c7c2c2c7c8c3c3c8c9c4c4c9c%10c5c5c1c1c6c6c%11c2c2c7c3c3c8c4c4c9c5c1c1c6c2c3c41` [C60, C60 fullerene], for which the “E. coli growth course after addition of nanoparticles” value in the series with Escherichia coli W3110 (20 mg/L and 40 mg/L, FIG. 4a) is “slowed after addition of nanoparticles, then resumed their normal growth rate”. In addition, the “E. coli growth inhibition” value in the series with Escherichia coli W3110 (concentrations up to 80 mg/L (C60 less than 20 mg/L), FIG. 3a) is recorded as “did not significantly inhibit”. For the same compound, the “effect on S. oneidensis MR-1 (growth), summary statement” value in series [1] was “mild negative effects”. The “S. oneidensis growth course after addition of nanoparticles” value in series [1] (20 mg/L and 40 mg/L, FIG. 4b) was “slowed after addition of nanoparticles, then resumed their normal growth rate”. Also, in series [1] (concentrations up to 80 mg/L (C60 less than 20 mg/L), FIG. 3b), the “S. oneidensis growth inhibition” value was “did not significantly inhibit”. Further, the solubility in water entry in “Solubility in water” is “not soluble”. Further, the carcinogenicity entry in the series with mouse skin is “non-carcinogenic”. Moreover, the “Conclusions: effect on 22 collection strains” value in series [2] was “No effect”. In addition, in the series on E. coli, and B. subtilis, the “Conclusions: effect on growth of prokaryotic microorganisms” value is listed as “inhibitory to”.
